Measurements reported in patent publication US20250269072A1, “PROCESSES FOR PREPARING RADIOLABELLED CONJUGATES” (CENTENARY INSTITUTE OF CANCER MEDICINE AND CELL BIOLOGY, priority 2021, published 2025).
Values joined by “and” are separate entries in the source; they are usually repeats but may differ in a detail not shown here. Equal entries are not always repeated.

What was measured:
[1] = test system: squamous cell carcinoma lymph node metastases; test: Histological correlation (TUNEL) with ^68Ga-CDI uptake; format: in vivo, human; conditions: subject 3, right axillary and right cervical nodal metastases
Source text: In one subject, who proceeded to surgical excision of the tumor deposits 1 day after the ^68Ga-CDI PET scan, histological correlation of the tumor deposits were undertaken using haematoxylin and eosin staining and TUNEL staining to specifically identify dead and dying cells. Representative samples of the formalin fixed surgical specimens (following completion of all clinical analysis and excess to that required for archival purposes) from the right axillary and right cervical nodal masses were selected and provided by the reporting clinical pathologist. The tissues were fixed, rehydrated with ethanol and xylene and embedded in paraffin. A series of 4 μm thick sections were cut and stained with Haematoxylin and Eosin. Apoptotic cells were stained using the TUNEL assay kit HRP-DAB (Abcam, Cat #206386, Cambridge, MA, USA) according to manufacturer's protocol. Briefly, 4 μm sections of paraffin embedded tumor were deparaffinized in xylene and rehydrated in decreasing concentrations of ethanol. Tumor sections were permeabilized with Proteinase K for 20 min at room temperature. The endogenous peroxidase activity was quenched with 3% H2O2 for 5 min. Apoptotic cells were labelled with biotinylated Terminal deoxynucleotidyl Transferase (TdT) at 37° C. in humidified chamber for 2 h followed by a 30 min incubation with streptavidin-HRP conjugate. […]

[2] = In-human study of ^68Ga-CDI: radiation dosimetry (OLINDA/EXM 1.1); format: in vivo; conditions: 5 participants
Source text: Activity concentrations derived above were entered into OLINDA/EXM 1.1 and bi-exponential curves fitted using the curve fitting tools within OLINDA/EXM 1.1 (Stabin et al., J Nucl Med. 2005; 46:1023-1027).

[3] = Biodistribution in healthy male rats; format: in vivo, rats (Lewis); conditions: rat
Method: Biodistribution was studied in ten healthy male rats (Lewis, Liverpool Hospital Animal Facility) aged 6-8 weeks. Five rats were administered with ^68Ga-NODAGA-GSAO. The rats were housed singly in a cage with impervious absorbent matting and at 1 hour post administration 5 rats were sacrificed by lethal carbon dioxide overdose. Immediately post mortem, blood was sampled via cardiac puncture. Two of the 5 rats were then imaged by PET CT (GE Discovery 710). The PET CT scan comprised a CT scan (80 kVp, 20 mA, helical mode, reconstructed slice thickness of 0.625 mm) followed by a PET scan (2 bed positions, 7.5 min/bed position, 256×256 reconstruction matrix, slice thickness 3.27 mm).
All of the rats were then dissected, organs sampled and weighed and counted in a gamma counter, and the cpm value converted to MBq using a known standard. The activity in the remaining carcass was measured in a dose calibrator.
Biodistribution studies were performed in a further 5 rats at two hours following ^68Ga-NODAGA GSAO administration.
Injected activity was corrected by measuring residual activity left in the syringe after injection in a dose calibrator. To correct for any dose extravasated at the injection site the tail was harvested and the activity in the tail was subtracted from the administered activity. All calculations were decayed corrected using the injection time as the reference.
Biodistribution was expressed as % ID/g and % ID/organ. % retained activity was the sum total of all activity in all individually harvested organs as well as the activity in the remaining carcass as a percentage of the injected dose. % recovered activity was the sum total of all activity in all individually harvested organs as well as the activity in the remaining carcass and excreted activity in the impervious matting as a percentage of the injected dose.

O=C(O)CNC(=O)[C@H](CSCC(=O)Nc1ccc([As](O)O)cc1)NC(=O)CC[C@H](NC(=O)CCC1C(=O)[O][68Ga]2[O]C(=O)CN3CCN(CCN1CC3)CC(=O)[O]2)C(=O)O (stereo partly shown) [^68Ga-NODAGA-GSAO]
TUNEL positive cells versus intensity of uptake [1]: correlated
Estimated radiation dose, Average ([2]; Adrenals): 1.28E−02 mSv/MBq
Estimated radiation dose, Average ([2]; Brain): 1.75E−03 mSv/MBq
Estimated radiation dose, Average ([2]; Breasts): 7.03E−03 mSv/MBq
Estimated radiation dose, Average ([2]; Effective dose, listed as 68Ga-CDI): 2.17E-02±4.61E-03 mSv/MBq and 2.17E−02 mSv/MBq
Estimated radiation dose, Average ([2]; Gallbladder Wall): 8.16E−03 mSv/MBq
Estimated radiation dose, Average ([2]; Heart Wall): 1.02E−02 mSv/MBq
Estimated radiation dose, Average ([2]; Kidneys, listed as 68Ga-CDI): 4.89E-02±3.55E-03 mSv/MBq and 4.89E−02 mSv/MBq
Estimated radiation dose, Average ([2]; LLI Wall): 1.91E−02 mSv/MBq
Estimated radiation dose, Average ([2]; Liver): 1.61E−02 mSv/MBq
Estimated radiation dose, Average ([2]; Lungs): 7.75E−03 mSv/MBq
Estimated radiation dose, Average ([2]; Muscle): 8.96E−03 mSv/MBq
Estimated radiation dose, Average ([2]; Osteogenic Cells): 1.13E−02 mSv/MBq
Estimated radiation dose, Average ([2]; Ovaries): 1.20E−02 mSv/MBq
Estimated radiation dose, Average ([2]; Pancreas): 1.52E−02 mSv/MBq
Estimated radiation dose, Average ([2]; Red Marrow): 8.89E−03 mSv/MBq
Estimated radiation dose, Average ([2]; Skin): 5.39E−03 mSv/MBq
Estimated radiation dose, Average ([2]; Small Intestine): 1.45E−02 mSv/MBq
Estimated radiation dose, Average ([2]; Spleen): 1.59E−02 mSv/MBq
Estimated radiation dose, Average ([2]; Stomach Wall): 1.00E−02 mSv/MBq
Estimated radiation dose, Average ([2]; Testes): 1.67E−02 mSv/MBq
Estimated radiation dose, Average ([2]; Thymus): 6.32E−03 mSv/MBq
Estimated radiation dose, Average ([2]; Thyroid): 1.26E−02 mSv/MBq
Estimated radiation dose, Average ([2]; Total Body): 9.66E−03 mSv/MBq
Estimated radiation dose, Average ([2]; ULI Wall): 1.23E−02 mSv/MBq
Estimated radiation dose, Average ([2]; Urinary Bladder Wall, listed as 68Ga-CDI): 2.79E-01±1.11E-01 mSv/MBq and 2.79E−01 mSv/MBq
Estimated radiation dose, Average ([2]; Uterus): 2.63E−02 mSv/MBq
injected activity retained within the animal ([3]; 1 hour): 32.4%
mean total recovered activity ([3]; 1 hour): 84.9 % of injected activity
injected activity retained within the animal ([3]; 2 hours): 21.4%
total recovered activity ([3]; 2 hours): 75.3 % of injected activity
